Results published in patent US20060281807A1, “Quassinoid compositions for the treatment of cancer and other proliferative diseases” (Tapestry Pharmaceuticals, Inc., priority 2005, published 2006).
Values after ≈ are worked out from the molar mass of the structure shown. Values joined by “and” are separate entries in the source; they are usually repeats but may differ in a detail not shown here. Equal entries are not always repeated. Where two headings read alike, the source gives them in different places.

Columns and labels:
[1] = test system: HCT116 (human colorectal carcinoma); assay: Disk diffusion assay, zone of inhibition, HCT116; type: cell-based; settings: 1 mg/mL
Method: (§1) A disk diffusion assay was performed to define the differential cell killing ability of 15-O-(3′-hydroxy-3′-isopropyl-4′-methylpentanoyl)bruceolide. Seven cell types were assayed: L1210 (ATCC CCL-219) (murine leukemia), CCRF-CEM (ATCC CCL-119) (human leukemia), Colon 38 (murine colon adenocarcinoma), HCT116 (ATCC CCL-247) (human colorectal carcinoma), H125 (human lung carcinoma). The murine and human granulocyte/macrophage progenitor cell line (CFU-GM), served as controls.
(§2) Colon 38 cells (about 1 gram) were cut into small fragments in 15 mL of Hank's Balanced Salt Solution (HBSS) over a 100-mesh sieve and gently forced through by the scissors with HBSS constantly perfusing the sieve. The resulting material was then drawn into and out of a 5 mL syringe without a needle to further disperse the cell clumps. The cell solution was diluted and plated in 0.3% agarose in DMEM plus 10% heat-inactivated Bovine Calf Serum (BCS). For plating of all of the cell types (except controls), the 60 mm plates were first prepared with a hard agar bottom layer (0.6% agar in RPMI-1640 plus 15% BCS).
(§3) HCT116 and H125 cells were maintained in cell culture, and were removed from culture by a trypsin-collagenase-DNAase cocktail. The plating efficiencies of each cell type was sufficiently high that 30,000 cells in 3 mL produced the desired number of colonies (i.e., over 10,000 per plate) in 60 mm plates. This soft agar top layer (0.3% with the serum and media as above) plus the titrated tumor cells were poured into the plates and allowed to solidify.
(§4) A 15 μl sample of each compound was dropped onto a 6.5 mm disk (Baxter filter disks). The disks were allowed to dry overnight and then placed close to the edge of a petri dish. Depending upon the cell type, the dishes were incubated for 7 to 10 days, and examined by an inverted stereo-microscope (10×) for measurement of the zone of inhibition. The zone of inhibition was measured from the edge of the filter disk to the beginning of normal-sized colony formation. The diameter of the filter disk, 6.5 mm, was arbitrarily taken as a zone of 200 units. Compounds that were selective for killing solid tumors, as compared to leukemia or normal cells (“solid tumor selective”) were defined as those compounds which produced a difference in zones between solid tumor cells and either normal or leukemia cells of at least 250 units. The results of this analysis are set forth in Table 4, which illustrates the relative diameters of the zones of inhibition by various drugs on the growth of the respective cell types at various drug dilutions.

[2] = test system: Colon 38 (murine colon adenocarcinoma); assay: Disk diffusion assay, zone of inhibition, Colon 38; zone differentials, potency and product; type: cell-based; design: key to C38ΔL1210 / C38ΔCFU: difference of zone of inhibition values, in zone units; settings: for zone of inhibition, Colon 38: 1 mg/mL; for Sum: C38ΔL1210 plus C38ΔCFU; for C38ΔL1210: Colon38 vs L1210 leukemia; for Product: potency multiplied by zone differentials
Method: as §1, §2, §4
The degree of differential sensitivity of several inventive compounds was compared with respect to the Colon38 cell line, the L1210 cell line, and the control CFU-GM cell lines. The degree of differential sensitivity was estimated by calculating the difference between the zone of inhibition values, as determined in Example 6, for the solid tumor compared to either the leukemia (C38ΔL1210) or normal cell (C38ΔCFU).
The potency of each of several inventive compounds was determined by identifying the dilution required to yield an average zone of inhibition of 500 units for the Colon38 cell type. Then the potency and the zone differentials were multiplied to define a “product” (see Table 5), which can be used to rank the compounds tested for their potential for further development; the greater the product value the greater the probability of useful chemotherapeutic utility.

murine CFU-GM = assay: Disk diffusion assay, zone of inhibition, murine CFU-GM; type: cell-based; settings: 1 mg/mL
Method: as §1
(§5) For CFU-GM cells, the femoral marrow of BD2F1 mice was flushed with MEM alpha (2 mL per femur). The cells were passed through an 18 gauge needle twice and the monodispersed suspension was counted. A total of 1.5×10^6 cells were plated in 3 mL of 0.3% agar with the addition of 10% L cell conditioned media, which provided colony stimulating factor, in MEM-alpha plus 10% BCS. For human CFU-GM, the cells were obtained from Poietic Technologies, Inc. (Gaithersburg, Md.) and washed twice with PBS before being titered and added to the agar mixture. The same cell number, culture conditions, and conditioning factors used with respect to the murine CFU-GM cells were used with the human cells, except that the cultures were assessed after 10 days of incubation.
as §4

HCT-116 cells [3] = assay: Clonogenic assay, HCT-116; type: cell-based, human; settings: colonies at 7 days
Method: A clonogenic assay was performed using HCT-116 cells. Specifically, HCT-116 cells were seeded at 200 to 20,000 cells in 60 mm dishes. […] At either 2 hours or 24 hours following drug administration, the drug-containing media was removed, and fresh media without drug was added. In addition, one group of cells was subjected to continuous drug exposure for the entire incubation period. The dishes were incubated for 7 days (at 37° C. and 5% CO2), media was removed, and the colonies were stained with methylene blue. Colonies containing 50 cells or more were counted. The results were normalized to an untreated control. Plating efficiency for the untreated cells was about 90%. Repeat experiments also were carried out to define the cell survival range between 1 (100%) and 10^−3 (0.1%) survival. A survival rate of 10^−1 was chosen as the minimal level that would be required in vivo to achieve therapeutic efficacy against HCT-116 cells in tumor-bearing mice. The clonogenic dose response to 15-O-(3′-hydroxy-3′-isopropyl-4′-methylpentanoyl)bruceolide is illustrated in FIG. 4. The clonogenic dose response to 15-(3-isopropyl-4-methyl-2-pentenoyl)-bruceolide is illustrated in FIG. 5.

L1210 (murine leukemia) = assay: Disk diffusion assay, zone of inhibition, L1210; type: cell-based; settings: 1 mg/mL
Method: as §1, §2, §4

[4] = test system: CCRF-CEM (human leukemia); assay: Disk diffusion assay, zone of inhibition, CCRF-CEM; type: cell-based; settings: 1 mg/mL
Method: as §1, §2, §4

[5] = test system: H125 (human lung carcinoma); assay: Disk diffusion assay, zone of inhibition, H125; type: cell-based; settings: 1 mg/mL
Method: as §1, §2, §3, §4

HCT-116 cells [6] = assay: HCT-116 cytotoxicity, viable cell count by trypan blue; type: cell-based, human
[7] = Maximum tolerated dose in mice; settings: intravenous, first stage, one mouse per dose
Method: Formulations containing 15-O-(3′-hydroxy-3′-isopropyl-4′-methylpentanoyl)bruceolide, 15-(3-isopropyl-4-methyl-2-pentenoyl)-bruceolide, and, for comparative purposes, bruceantin, or peninsularinone were prepared by solubilizing each compound in up to 100 mg/mL of ethanol. These solutions were diluted 1:1 with a stabilizer (Cremophor/propylene glycol). The solutions were then diluted in saline (1:10 minimum).
The maximum tolerated dose (MTD) was determined by a two-stage experiment. In the first stage, between 1 and 10 mg/mL of the formulation was prepared as described above. Next, 0.25 mL of the formulation was injected intravenously into one 20 gram mouse (0.75 mg/mouse). If the animal died within 30 days of injection, a series of subsequent 2-fold dilutions were administered to individual mice until an MTD was defined. […] The second stage of the study involved increasing the number of mice per dose to four, and retesting four dilutions that bracket the MTD from the individual mouse study. The four dilutions were the MTD, a dosage twice the MTD, a dosage ½ the MTD, and a dosage ¼ the MTD.

human CFU-GM = type: cell-based; settings: 1 mg/mL
Method: as §1, §5, §4

[8] = no dilution, 15 μl on disk, 6.5 mm = 200 units
[9] = difference between zone of inhibition values
[10] = HCT-116, 3 days with compound, viable cells, by interpolation

SMILES: CC[C@@](O)(CC(=O)O[C@@H]1C(=O)O[C@@H]2C[C@@H]3C(C)=CC(=O)[C@H](O)[C@]3(C)[C@H]3[C@]4(O)OC[C@]32[C@@H]1[C@@H](C)[C@H]4O)C(C)C [Peninsularinone, peninsularinone]
- zone of inhibition, H-116 ([1]; dilution 1/10): >1000 units
- zone of inhibition, H-116 ([1]; dilution 1/100): 950 units
- zone of inhibition, H-116 ([1]; dilution 1/1000): 450 units
- zone of inhibition, H-116 [1, 8]: >1000 units
- zone of inhibition, Colon 38 ([2]; dilution 1/10): >1000 units
- zone of inhibition, Colon 38 ([2]; dilution 1/100): >1000 units
- zone of inhibition, Colon 38 ([2]; dilution 1/1000): 800 units and 550 units
- zone of inhibition, Colon 38 ([2]; dilution 1/4000): 250 units
- zone of inhibition, Colon 38 ([2]; dilution 1/10000): 200 units
- zone of inhibition, Colon 38 [2, 8]: >1000 units
- Sum [2]: 1100 and 550
- C38ΔL1210 [2, 9]: 450 and 250
- Product [2]: 6600 and 3575
- zone of inhibition, murine CFU-GM (murine CFU-GM; dilution 1/10): >1000 units
- zone of inhibition, murine CFU-GM (murine CFU-GM; dilution 1/100): 450 units
- zone of inhibition, murine CFU-GM (murine CFU-GM; dilution 1/4000): 0 units
- zone of inhibition, murine CFU-GM (murine CFU-GM; dilution 1/10000): 0 units
- zone of inhibition, murine CFU-GM (murine CFU-GM; [8]): >1000 units
- Concentration Required for 10^−1 Survival Fraction (HCT-116 cells [3]; HCT-116, 2 Hour Exposure): >10 μg/mL
- Concentration Required for 10^−1 Survival Fraction (HCT-116 cells [3]; HCT-116, 24 Hour Exposure): 1 × 10^−2 μg/mL
- Concentration Required for 10^−1 Survival Fraction (HCT-116 cells [3]; HCT-116, Continuous Exposure): 1 × 10^−3 μg/mL
- zone of inhibition, L1210 (L1210 (murine leukemia); dilution 1/10): >1000 units
- zone of inhibition, L1210 (L1210 (murine leukemia); dilution 1/100): 700 units
- zone of inhibition, L1210 (L1210 (murine leukemia); dilution 1/1000): 300 units and 200 units
- zone of inhibition, L1210 (L1210 (murine leukemia); dilution 1/4000): 50 units
- zone of inhibition, L1210 (L1210 (murine leukemia); dilution 1/10000): 100 units
- zone of inhibition, L1210 (L1210 (murine leukemia); [8]): >1000 units
- zone of inhibition, CEM ([4]; dilution 1/10): >1000 units
- zone of inhibition, CEM ([4]; dilution 1/100): 800 units
- zone of inhibition, CEM ([4]; dilution 1/1000): 500 units
- zone of inhibition, CEM [4, 8]: >1000 units
- zone of inhibition, H-125 M ([5]; dilution 1/10): >1000 units
- zone of inhibition, H-125 M ([5]; dilution 1/100): 1000 units
- zone of inhibition, H-125 M ([5]; dilution 1/1000): 400 units
- zone of inhibition, H-125 M [5, 8]: >1000 units
- IC90/IC50 (HCT-116 cells [6]; HCT-116): 13
- IC50 (HCT-116 cells [6]; [10]): 1.2 ng/mL (≈ 0.00224 µM)
- IC90 (HCT-116 cells [6]; [10]): 15 ng/mL (≈ 0.028 µM)
- maximum tolerated dose, Dose - 1 Mouse [7]: 0.01 mg/mouse and 0.45 mg/kg

SMILES: CC(=O)O[C@H]1C(=O)[C@@]2(C)[C@H]([C@H](OC(=O)c3ccccc3)[C@]3(O)C[C@H](OC(=O)[C@H](O)[C@@H](NC(=O)c4ccccc4)c4ccccc4)C(C)=C1C3(C)C)[C@]1(OC(C)=O)CO[C@@H]1C[C@@H]2O [Taxol, taxol]
- zone of inhibition, human CFU-GM (human CFU-GM; dilution 1/4): >1000 units
- zone of inhibition, human CFU-GM (human CFU-GM; dilution 1/16): 800 units
- zone of inhibition, human CFU-GM (human CFU-GM; dilution 1/64): 750 units
- zone of inhibition, human CFU-GM (human CFU-GM; dilution 1/256): 550 units
- zone of inhibition, human CFU-GM (human CFU-GM; [8]): >1000 units
- zone of inhibition, H-116 ([1]; dilution 1/4): 750 units
- zone of inhibition, H-116 ([1]; dilution 1/16): 650 units
- zone of inhibition, H-116 ([1]; dilution 1/64): 550 units
- zone of inhibition, H-116 ([1]; dilution 1/256): 400 units
- zone of inhibition, H-116 [1, 8]: 850 units
- zone of inhibition, Colon 38 ([2]; dilution 1/4): 900 units
- zone of inhibition, Colon 38 ([2]; dilution 1/16): 750 units
- zone of inhibition, Colon 38 ([2]; dilution 1/64): 600 units
- zone of inhibition, Colon 38 ([2]; dilution 1/256): 450 units
- zone of inhibition, Colon 38 [2, 8]: >1000 units
- Sum [2]: 700
- C38ΔL1210 [2, 9]: 400
- C38ΔCFU ([2]; difference between zone of inhibition values, Colon38 vs normal cell CFU-GM): 300
- Product [2]: 3500
- zone of inhibition, murine CFU-GM (murine CFU-GM; dilution 1/4): 600 units
- zone of inhibition, murine CFU-GM (murine CFU-GM; dilution 1/16): 550 units
- zone of inhibition, murine CFU-GM (murine CFU-GM; dilution 1/64): 400 units
- zone of inhibition, murine CFU-GM (murine CFU-GM; dilution 1/256): 150 units
- zone of inhibition, murine CFU-GM (murine CFU-GM; [8]): 650 units
- zone of inhibition, L1210 (L1210 (murine leukemia); dilution 1/4): 550 units
- zone of inhibition, L1210 (L1210 (murine leukemia); dilution 1/16): 500 units
- zone of inhibition, L1210 (L1210 (murine leukemia); dilution 1/64): 350 units
- zone of inhibition, L1210 (L1210 (murine leukemia); dilution 1/256): 50 units
- zone of inhibition, L1210 (L1210 (murine leukemia); [8]): 650 units
- zone of inhibition, CEM ([4]; dilution 1/4): >1000 units
- zone of inhibition, CEM ([4]; dilution 1/16): 900 units
- zone of inhibition, CEM ([4]; dilution 1/64): 750 units
- zone of inhibition, CEM ([4]; dilution 1/256): 550 units
- zone of inhibition, CEM [4, 8]: >1000 units
- zone of inhibition, H-125 M ([5]; dilution 1/4): 850 units
- zone of inhibition, H-125 M ([5]; dilution 1/16): 750 units
- zone of inhibition, H-125 M ([5]; dilution 1/64): 650 units
- zone of inhibition, H-125 M ([5]; dilution 1/256): 500 units
- zone of inhibition, H-125 M [5, 8]: >1000 units
